Measured values taken from PubChem BioAssay AID222 (DTP/NCI, 2004).
“And” between values parts separate entries of the source, which are not always exact repeats. Equal values may be shown once. Toxic doses and inconclusive results are not listed. Rule for the calls: active = survival T/C of 150% or more; inactive = T/C below 125% in these data.

Test system: C57BL/6 mice, intracerebral ependymoblastoma, median survival T/C
Assay: NCI In Vivo Anticancer Drug Screen. Data for tumor model Ependymoblastoma (intracerebral) in C57BL/6 mice
Details: endpoint: median survival time, higher = longer survival
Protocol: The antitumor activity of compounds was measured in mice bearing transplantable tumors. Survival or tumor size were measured and the results are expressed as the measurement made in the treated group (T) divided by the measurement made in the vehicle treated control group (C). The tumor model used in this assay is Ependymoblastoma (intracerebral) in C57BL/6 mice

[1] = dose: 1.0 mg/kg/injection, schedule: Q01DX005 (ip), vehicle: Klucel (hydroxypropylcellulose) (HPC)
[2] = dose: 16.0 mg/kg/injection, schedule: Q01DX005 (ip), vehicle: saline with Tween-80
[3] = dose: 32.0 mg/kg/injection, schedule: Q01DX005 (ip), vehicle: saline with Tween-80
[4] = dose: 64.0 mg/kg/injection, schedule: Q01DX005 (ip), vehicle: saline with Tween-80
[5] = dose: 128.0 mg/kg/injection, schedule: Q01DX001 (ip), vehicle: Klucel (hydroxypropylcellulose) (HPC)
[6] = dose: 256.0 mg/kg/injection, schedule: Q01DX001 (ip), vehicle: Klucel (hydroxypropylcellulose) (HPC)
[7] = dose: 512.0 mg/kg/injection, schedule: Q01DX001 (ip), vehicle: Klucel (hydroxypropylcellulose) (HPC)
[8] = dose: 128.0 mg/kg/injection, schedule: Q01DX005 (ip), vehicle: saline with Tween-80

Measured: T/C

CCOC(=O)C(CC(C)C)NC(=O)C(Cc1ccc(N(CCCl)CCCl)cc1)NC(C)=O (centres undefined)
inactive: [1] 103 % of control | dose: 2.0 mg/kg/injection, schedule: Q01DX005 (ip), vehicle: Klucel (hydroxypropylcellulose) (HPC) 94 % of control and 101 % of control | dose: 4.0 mg/kg/injection, schedule: Q01DX005 (ip), vehicle: saline with Tween-80 96 % of control and 109 % of control | dose: 8.0 mg/kg/injection, schedule: Q01DX005 (ip), vehicle: saline with Tween-80 110 % of control and 119 % of control | [2] 107 % of control | dose: 16.0 mg/kg/injection, schedule: Q#A X002 (ip), vehicle: Klucel (hydroxypropylcellulose) (HPC) 110 % of control | dose: 32.0 mg/kg/injection, schedule: Q01DX001 (ip), vehicle: Klucel (hydroxypropylcellulose) (HPC) 100 % of control | [3] 97 % of control and 116 % of control | dose: 32.0 mg/kg/injection, schedule: Q#A X002 (ip), vehicle: Klucel (hydroxypropylcellulose) (HPC) 96 % of control | dose: 64.0 mg/kg/injection, schedule: Q01DX001 (ip), vehicle: Klucel (hydroxypropylcellulose) (HPC) 97 % of control and 103 % of control | dose: 64.0 mg/kg/injection, schedule: Q01DX001 (oral), vehicle: Klucel (hydroxypropylcellulose) (HPC) 99 % of control and 113 % of control | [4] 91 % of control | dose: 64.0 mg/kg/injection, schedule: Q#A X002 (ip), vehicle: Klucel (hydroxypropylcellulose) (HPC) 94 % of control | [5] 94 % of control and 115 % of control | dose: 128.0 mg/kg/injection, schedule: Q01DX001 (oral), vehicle: Klucel (hydroxypropylcellulose) (HPC) 99 % of control and 110 % of control | dose: 128.0 mg/kg/injection, schedule: Q#A X002 (ip), vehicle: Klucel (hydroxypropylcellulose) (HPC) 99 % of control | [6] 91 % of control and 98 % of control | dose: 256.0 mg/kg/injection, schedule: Q01DX001 (oral), vehicle: Klucel (hydroxypropylcellulose) (HPC) 101 % of control and 110 % of control | [7] 86 % of control | dose: 512.0 mg/kg/injection, schedule: Q01DX001 (oral), vehicle: Klucel (hydroxypropylcellulose) (HPC) 104 % of control and 114 % of control | dose: 1024.0 mg/kg/injection, schedule: Q01DX001 (oral), vehicle: Klucel (hydroxypropylcellulose) (HPC) 100 % of control and 109 % of control

COc1ccc2c(c1OC(C)=O)-c1cc(O)cc3c1C(C2)N(C(=O)CN(CCCl)CCCl)CC3 (centres undefined)
inactive: dose: 12.5 mg/kg/injection, schedule: Q04DX003 (ip), vehicle: saline 94 % of control | dose: 25.0 mg/kg/injection, schedule: Q04DX003 (ip), vehicle: saline 99 % of control | dose: 50.0 mg/kg/injection, schedule: Q04DX003 (ip), vehicle: saline 86 % of control

Nc1ccc(C(=O)O)c(O)c1
inactive: dose: 67.5 mg/kg/injection, schedule: Q01DX005 (ip), vehicle: saline with Tween-80 103 % of control | dose: 135.0 mg/kg/injection, schedule: Q01DX005 (ip), vehicle: saline with Tween-80 94 % of control | dose: 270.0 mg/kg/injection, schedule: Q01DX005 (ip), vehicle: saline with Tween-80 86 % of control

CCN(CC)CCCC(C)Nc1c2ccc(Cl)cc2nc2ccc(OC)cc12 (centres undefined)
inactive: dose: 8.0 mg/kg/injection, schedule: Q01DX005 (ip), vehicle: saline 104 % of control | [2] 91 % of control | dose: 16.0 mg/kg/injection, schedule: Q01DX005 (ip), vehicle: saline 98 % of control | [3] 102 % of control | dose: 32.0 mg/kg/injection, schedule: Q01DX005 (ip), vehicle: saline 90 % of control | [4] 94 % of control | dose: 64.0 mg/kg/injection, schedule: Q01DX005 (ip), vehicle: saline 95 % of control | [8] 94 % of control

CC[C@]1(O)C[C@H]2CN(CCc3c([nH]c4ccccc34)[C@@](C(=O)OC)(c3cc4c(cc3OC)N(C=O)[C@H]3[C@@](O)(C(=O)OC)[C@H](OC(C)=O)[C@]5(CC)C=CCN6CC[C@]43[C@@H]65)C2)C1
inactive: dose: 0.05 mg/kg/injection, schedule: Q01DX005 (ip), vehicle: saline 108 % of control | dose: 0.1 mg/kg/injection, schedule: Q01DX005 (ip), vehicle: saline 103 % of control | dose: 0.2 mg/kg/injection, schedule: Q01DX005 (ip), vehicle: saline 105 % of control | dose: 0.4 mg/kg/injection, schedule: Q01DX005 (ip), vehicle: saline 124 % of control

COC(=O)[C@@]12OC[C@]34[C@H]([C@@H](O)[C@@H]1O)[C@@]1(C)CC(=O)C(O)=C(C)[C@@H]1C[C@H]3OC(=O)[C@H](OC(=O)/C=C(\C)C(C)C)[C@@H]24
inactive: dose: 0.03 mg/kg/injection, schedule: Q01DX005 (ip), vehicle: Klucel (hydroxypropylcellulose) (HPC) 92 % of control and 110 % of control | dose: 0.06 mg/kg/injection, schedule: Q01DX005 (ip), vehicle: Klucel (hydroxypropylcellulose) (HPC) 109 % of control and 116 % of control | dose: 0.12 mg/kg/injection, schedule: Q01DX005 (ip), vehicle: Klucel (hydroxypropylcellulose) (HPC) 101 % of control and 107 % of control | dose: 0.25 mg/kg/injection, schedule: Q01DX005 (ip), vehicle: Klucel (hydroxypropylcellulose) (HPC) 104 % of control and 109 % of control | dose: 0.5 mg/kg/injection, schedule: Q01DX005 (ip), vehicle: Klucel (hydroxypropylcellulose) (HPC) 93 % of control and 117 % of control | [1] 95 % of control | dose: 31.2 micrograms/kg/injection, schedule: Q01DX005 (ip), vehicle: saline + alcohol 86 % of control | dose: 62.5 micrograms/kg/injection, schedule: Q01DX005 (ip), vehicle: saline + alcohol 99 % of control | dose: 125.0 micrograms/kg/injection, schedule: Q01DX005 (ip), vehicle: saline + alcohol 94 % of control | dose: 250.0 micrograms/kg/injection, schedule: Q01DX005 (ip), vehicle: saline + alcohol 108 % of control | dose: 500.0 micrograms/kg/injection, schedule: Q01DX005 (ip), vehicle: saline + alcohol 87 % of control | dose: 1000.0 micrograms/kg/injection, schedule: Q01DX005 (ip), vehicle: saline + alcohol 99 % of control

CCC(=O)O[C@H]1CC[C@H]2[C@@H]3[C@@H](C)CC4=CC(=O)CC[C@]4(C)[C@H]3CC[C@]12C
inactive: dose: 32.0 mg/kg/injection, schedule: Q01DX005 (ip), vehicle: Klucel (hydroxypropylcellulose) (HPC) 104 % of control | dose: 64.0 mg/kg/injection, schedule: Q01DX005 (ip), vehicle: Klucel (hydroxypropylcellulose) (HPC) 105 % of control and 106 % of control | [5] 106 % of control | dose: 128.0 mg/kg/injection, schedule: Q01DX005 (ip), vehicle: Klucel (hydroxypropylcellulose) (HPC) 105 % of control and 111 % of control | dose: 128.0 mg/kg/injection, schedule: Q01DX005 (oral), vehicle: Klucel (hydroxypropylcellulose) (HPC) 109 % of control | [6] 93 % of control | dose: 256.0 mg/kg/injection, schedule: Q01DX005 (ip), vehicle: Klucel (hydroxypropylcellulose) (HPC) 103 % of control and 113 % of control | dose: 256.0 mg/kg/injection, schedule: Q01DX005 (oral), vehicle: Klucel (hydroxypropylcellulose) (HPC) 97 % of control | [7] 103 % of control | dose: 512.0 mg/kg/injection, schedule: Q01DX005 (ip), vehicle: Klucel (hydroxypropylcellulose) (HPC) 105 % of control and 107 % of control | dose: 512.0 mg/kg/injection, schedule: Q01DX005 (oral), vehicle: Klucel (hydroxypropylcellulose) (HPC) 90 % of control | dose: 1024.0 mg/kg/injection, schedule: Q01DX001 (ip), vehicle: Klucel (hydroxypropylcellulose) (HPC) 96 % of control | dose: 1024.0 mg/kg/injection, schedule: Q01DX005 (oral), vehicle: Klucel (hydroxypropylcellulose) (HPC) 113 % of control

Nc1ccnc(=O)[nH]1
inactive: [4] 95 % of control | [8] 90 % of control | dose: 256.0 mg/kg/injection, schedule: Q01DX005 (ip), vehicle: saline with Tween-80 104 % of control | dose: 512.0 mg/kg/injection, schedule: Q01DX005 (ip), vehicle: saline with Tween-80 87 % of control | dose: 1024.0 mg/kg/injection, schedule: Q01DX005 (ip), vehicle: saline with Tween-80 107 % of control
